Results: US7109193B2, “Tricyclic diazepines tocolytic oxytocin receptor antagonists” (Wyeth, priority 2001, dated 2006)

Biological target: T1, human vasopressin V2 receptor subtype (Homo sapiens, UniProt P30518)
T1 construct: host or cells: CHO cells (pZeoSV vector)
Assay: Vasopressin binding in Chinese Hamster Ovary cell membranes expressing human vasopressin V2 subtype receptors
Conditions: 100 nM, CHO cell membranes, [3H]arginine vasopressin, values without parentheses
Summary of the method: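 Radioligand displacement on membranes from CHO cells stably expressing human V2 receptor, 25 to 50 μg protein/well, in 50 mM Tris-HCl pH 7.4 with MgCl2, BSA and protease inhibitors. [^3H]arginine vasopressin (8 nM working solution) incubated 60 min at room temperature; bound label measured by filtration and scintillation counting.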

T1 sequence (P30518 whole entry): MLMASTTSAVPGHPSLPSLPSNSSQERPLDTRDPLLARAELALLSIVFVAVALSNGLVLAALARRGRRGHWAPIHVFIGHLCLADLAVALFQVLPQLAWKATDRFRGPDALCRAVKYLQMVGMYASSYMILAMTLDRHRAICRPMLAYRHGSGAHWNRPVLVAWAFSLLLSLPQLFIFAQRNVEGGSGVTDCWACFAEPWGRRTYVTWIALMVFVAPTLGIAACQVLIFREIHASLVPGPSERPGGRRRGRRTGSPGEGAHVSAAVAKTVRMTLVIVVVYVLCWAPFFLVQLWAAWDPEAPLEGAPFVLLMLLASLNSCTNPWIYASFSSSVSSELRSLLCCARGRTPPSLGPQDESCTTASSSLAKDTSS

Row | Compound | inhibition at 0.1 µM
1 | COc1cc(C(=O)N2Cc3ccc(C(=O)N4CCN(CCN5CCOCC5)CC4)n3Cc3ccccc32)ccc1-c1cccc2ccccc12 [Example 213, {10-[3-Methoxy-4-(1-naphthyl)benzoyl]-10,11-dihydro-5H-pyrrolo[2,1-c][1,4]benzodiazepin-3-yl}{4-[2-(4-morpholinyl)ethyl]-1-piperazinyl}methanone] | 33%
2 | COc1ccccc1-c1ccc(C(=O)N2Cc3ccc(C(=O)N4CCN(CCN5CCOCC5)CC4)n3Cc3ccccc32)cc1OC [Example 214, {10-[(2,2′-Dimethoxy[1,1′-biphenyl]-4-yl)carbonyl]-10,11-dihydro-5H-pyrrolo[2,1-c][1,4]benzodiazepin-3-yl}{4-[2-(4-morpholinyl)ethyl]-1-piperazinyl}methanone] | 11%
3 | O=C(c1ccc2n1Cc1ccccc1N(C(=O)c1ccc(-c3cccc4ccccc34)cc1Cl)C2)N1CCN(CCN2CCOCC2)CC1 [Example 215, {10-[2-Chloro-4-(1-naphthyl)benzoyl]-10,11-dihydro-5H-pyrrolo[2,1-c][1,4]benzodiazepin-3-yl}{4-[2-(4-morpholinyl)ethyl]-1-piperazinyl}methanone] | 22%
4 | Cc1cc(C(=O)N2Cc3ccc(C(=O)N4CCN(CCN5CCOCC5)CC4)n3Cc3ccccc32)ccc1-c1ccccc1C(F)(F)F [Example 216, (10-{[2-Methyl-2′-(trifluoromethyl)[1,1′-biphenyl]-4-yl]carbonyl}-10,11-dihydro-5H -pyrrolo[2,1-c][1,4]benzodiazepin-3-yl){4-[2-(4-morpholinyl)ethyl]-1-piperazinyl}methanone] | 0%
5 | COc1cc(-c2ccccc2C)c(Cl)cc1C(=O)N1Cc2ccc(C(=O)N3CCN(CCN4CCOCC4)CC3)n2Cc2ccccc21 [Example 217, {10-[(6-Chloro-3-methoxy-2′-methyl[1,1′-biphenyl]-4-yl)carbonyl]-10,11-dihydro-5H -pyrrolo[2,1-c][1,4]benzodiazepin-3-yl}{4-[2-(4-morpholinyl)ethyl]-1-piperazinyl}methanone] | 34%
6 | Cc1ccccc1-c1ccc(C(=O)N2Cc3ccc(C(=O)N4CCN(CCN5CCOCC5)CC4)n3Cc3ccccc32)cc1C [Example 218, {10-[(2,2′-Dimethyl[1,1′-biphenyl]-4-yl)carbonyl]-10,11-dihydro-5H-pyrrolo[2,1-c][1,4]benzodiazepin-3-yl}{4-[2-(4-morpholinyl)ethyl]-1-piperazinyl}methanone] | 23%
7 | C=CCN1CCN(C(=O)c2ccc3n2Cc2ccccc2N(C(=O)c2ccc(-c4ccccc4OC)c(C)c2)C3)CC1 [Example 222, (4-Allyl-1-piperazinyl){10-[(2′-methoxy-2-methyl[1,1′-biphenyl]-4-yl)carbonyl]-10,11-dihydro-5H-pyrrolo[2,1-c][1,4]benzodiazepin-3-yl}methanone] | 1%
8 | C=CCN1CCN(C(=O)c2ccc3n2Cc2ccccc2N(C(=O)c2ccc(-c4cccc(OC)c4)c(C)c2)C3)CC1 [Example 223, (4-Allyl-1-piperazinyl){10-[(3′-methoxy-2-methyl[1,1′-biphenyl]-4-yl)carbonyl]-10,11-dihydro-5H-pyrrolo[2,1-c][1,4]benzodiazepin-3-yl}methanone] | 13%
9 | C=CCN1CCN(C(=O)c2ccc3n2Cc2ccccc2N(C(=O)c2ccc(-c4ccccc4C)cc2)C3)CC1 [Example 224, (4-Allyl-1-piperazinyl){10-[(2′-methyl[1,1′-biphenyl]-4-yl)carbonyl]-10,11-dihydro-5H -pyrrolo[2,1-c][1,4]benzodiazepin-3-yl}methanone] | 7%
10 | C=CCN1CCN(C(=O)c2ccc3n2Cc2ccccc2N(C(=O)c2ccc(-c4ccccc4C)c(OC)c2)C3)CC1 [Example 225, (4-Allyl-1-piperazinyl){10-[(2-methoxy-2′-methyl[1,1′-biphenyl]-4-yl)carbonyl]-10,11-dihydro-5H-pyrrolo[2,1-c][1,4]benzodiazepin-3-yl}methanone] | -4%
